The numbers were not newly measured in patent publication EP2055233B1 (priority 2003, dated 2004), which cites them from elsewhere.

The conditions of data set [1]: in vivo, iv.

Take `CC(C)c1cccc(C(C)C)c1O` [propofol, 2,6-diisopropylphenol]: the “dose recovered in urine as hydroxylated and conjugated metabolites” value was 88%. For the same compound, in data set [1], the plasma concentration was 1000 to 10000 ng/mL.
